Key:
[1] = In vivo efficacy in experimental autoimmune encephalomyelitis (EAE) model of MS; set-up: species or system mouse; details: EAE mice (MOG35-55/CFA, female C57Bl/6), 50 to 125 mg/kg b.i.d. from time of immunization
Text: Experimental autoimmune encephalomyelitis (EAE) is a T-cell-mediated autoimmune disease of the CNS which shares many clinical and histopathological features with human multiple sclerosis (MS). EAE is the most commonly used animal model of MS. […] Cytokines IL-23, IL-6 and IL-17, which are either critical for Th1 and Th17 differentiation or produced by these T cells, play a critical and non-redundant role in EAE development. Therefore, drugs targeting production of these cytokines are likely to have therapeutic potential in treatment of MS.
Compounds of Formula I or la were administered at 50 to 125 mg/kg b.i.d. from time of immunization to EAE mice to assess anti-inflammatory activity. In this model, EAE is induced by MOG35-55/CFA immunization and pertussis toxin injection in female C57BI/6 mice.

[2] = system: hIL-17 mRNA; assay: Inhibition of hIL-17 mRNA transcription in OKT3-stimulated peripheral blood mononuclear cells; format: cell-based; details: PBMC, human peripheral blood mononuclear cells, OKT3 antibody, 6 h, read-out: IL-17 activity
Method: In this example, hIL-17 mRNA in human peripheral blood mononuclear cells was quantitated to measure the transcriptional inhibition of hIL-17 when treated with a compound of the invention.
Human peripheral blood mononuclear cells were plated (2.0×10^5 cells per well) in a 96-well plate in 45 μL OpTimizer T Cell expansion media containing 20 ng/ml IL-2 and penicillin/streptomycin. The cells were treated with the test compound (45 μL at 2× concentration), and then the cells were incubated at 37° C. for 1 h before addition of 10× stock OKT3 antibody at 10 μg/ml in media. Cells were incubated at 37° C. for 6 h before the cells were harvested. At time of harvest, cells were centrifuged (800 rpm, 5 min). Spent media was removed and cell lysis solution (70 μL) was added to the cells in each well and incubated for 5-10 min at room temperature, to allow for complete cell lysis and detachment. mRNA was then prepared using the “mRNA Catcher PLUS plate” (Invitrogen), according to the protocol supplied. After the last wash, as much wash buffer as possible was aspirated without allowing the wells to dry. Elution buffer (E3, 70 μL) was then added to each well. mRNA was then eluted by incubating the mRNA Catcher PLUS plate with Elution Buffer for 5 min at 68° C. and then immediately placing the plate on ice.
The eluted mRNA isolated was then used in a one-step quantitative RT-PCR reaction, using components of the Ultra Sense Kit together with Applied Biosystems primer-probe mixes. Real-time PCR data was analyzed, normalizing the Ct values for hIL-17 to an internal control, prior to determining the fold induction of each unknown sample, relative to the control.

[3] = system: c-myc; assay: Inhibition of c-myc expression (mRNA, real-time PCR) in MV4-11 cells; format: cell-based; details: Human AML MV4-11 cells, 3 h, cMYC mRNA
In short: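 MV4-11 cells treated 3 h at 37° C with increasing compound concentrations or 0.1% DMSO, in triplicate. cMYC mRNA quantified by one-step TaqMan real-time PCR, Ct normalized to internal control (Cyclophilin primers used), fold expression relative to control.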

[4] = system: human AML MV-4-11 cells; assay: Inhibition of cell proliferation in MV4-11 cells (CellTiter Aqueous One); format: cell-based; details: MV4-11, 72 h
In short: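 Exponentially growing MV-4-11 cells (5×10^4/well) were treated immediately with two-fold dilutions of compound from 30 μM to 0.2 μM, in triplicate, for 72 h at 37° C, 5% CO2. Viability was measured by MTS absorbance at 490 nm after 3–4 h. Proliferation relative to DMSO after blank correction gave IC50.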

[5] = target: T1, Brd4 bromodomain 1 (BRD4(1)) (Homo sapiens, UniProt O60885); assay: Inhibition of tetra-acetylated histone H4 binding to Brd4 bromodomain 1 (TR-FRET); details: tetra-acetylated histone H4 peptide, first bromodomain of Brd4
T1 construct: made in house; host or cells: E. coli BL21(DE3)
In short: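 His-tagged BRD4(1) from E. coli (200 nM) with biotinylated tetra-acetylated H4 peptide (25-50 nM), Eu-cryptate streptavidin and XL665 anti-His, in HEPES pH 7.4/phosphate/KF buffer, 0.2% DMSO. After 2 h at room temperature, TR-FRET 665/620 nm ratio read; IC50 from dose-response curves.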

IC50 [2]: ≤ 300 nM | IC50 [3]: 300 to 3000 nM | IC50 [4]: ≤ 300 nM | IC50 [5]: ≤ 300 nM
Compound: Cc1noc(C)c1-c1cc(N)c2ncn(Cc3ccccc3)c2c1 [Example Compound 7, 1-Benzyl-6-(3,5-dimethylisoxazol-4-yl)-1H-benzo[d]imidazol-4-amine]
In vivo activity [1]: Active
